Like-named read-outs stand apart in the source and are kept apart here. Values belong to the compound of their own block, whether it stands above or below them.
Assays:
[1] = tested on: nicotinamide N-methyltransferase, NNMT; settings: cited from earlier work
OCT2 = settings: read-out: IC50 for OCT2; cited from earlier work
aldehyde oxidase, AO = settings: cited from earlier work
OCT1 [2] = settings: potent OCT1 inhibitor new chemical entity vs placebo, healthy adults; cited from earlier work
[3] = for relative plasma concentrations between study arms: targeted analysis, baseline vs cimetidine exposure
[4] = rats, cimetidine 100 mg/kg intraperitoneally; cited from earlier work
clinical = settings: both, human, po; for Cmax: plasma
Oct1 [5] = settings: Oct1 knockout mice vs wild-type mice, single oral dose of metformin; cited from earlier work
[6] = cited from earlier work
[7] = excreted unchanged into urine; cited from earlier work
[8] = pyrimethamine 75 mg, healthy adults; cited from earlier work
[9] = cimetidine 400 mg vs baseline, healthy adults
[10] = decrease with cimetidine 400 mg vs baseline, healthy adults
[11] = increase with cimetidine 400 mg vs baseline, healthy adults
[12] = cimetidine 400 mg vs baseline, healthy adults, listed as NMA

Compound: CN/C(=N/CCSCc1nc[nH]c1C)NC#N [Cimetidine, cimetidine]
inhibition of NNMT activity [1]: does not inhibit | IC50 (OCT2): 23.6 to 207 µM | inhibition of AO activity (aldehyde oxidase, AO): does not inhibit

Compound: CC(C)C(=O)O[C@H](CC(=O)[O-])C[N+](C)(C)C [Isobutyryl-L-carnitine, isobutyryl-L-carnitine]
decrease in plasma exposure (OCT1 [2]): 35% | AUC(0–4 h), effect of cimetidine exposure vs baseline (in words) [3, 9]: did not differ | AUC(0–24 h), effect of cimetidine exposure vs baseline (in words) [3, 9]: did not differ | Cmax, effect of cimetidine exposure vs baseline (in words) [3, 9]: did not differ | AUC(0–24 h) %Change (cimetidine exposure/baseline), decrease (↓) [3, 10]: 4% (↓) | Cmax %Change (cimetidine exposure/baseline), decrease (↓) [3, 10]: 6% (↓)

Cmax (clinical): 168 ng/mL | Cmax (clinical; 50 mg): 124 ng/mL | higher AUC(0–24 h), group TT compared to heterozygous group TC ([3]; MATE1 c.−66T>C (rs2252281), baseline arm, p = 0.042): 1.42 fold | CLr,b %Change (cimetidine exposure/baseline), decrease (↓) [3, 10]: 17% (↓) | CLr,a %Change (cimetidine exposure/baseline), decrease (↓) ([3]; decrease with cimetidine 400 mg vs baseline, healthy adults, CLr based on 0–24 h): 8% (↓) | Renal OCT2 alone (AUC(0–24 h)) % Change Observed data, increase (↑) ([3]; from the observed CLr decrease): 8% (↑) | AUC(0–24 h) %Change (cimetidine exposure/baseline), increase (↑) [3, 11]: 24% (↑) | AUC(0–24 h) %Change (cimetidine exposure/baseline), increase (↑) ([3]; increase with cimetidine 400 mg vs baseline, healthy adults, listed as metformin): 24% | increase in Cmax with cimetidine treatment ([3]; individuals homozygous for OCT1 c.480G>C (p.Leu160Phe, rs683369), p = 0.006): 48% | increase in AUC(0–24 h) with cimetidine treatment ([3]; individuals homozygous for OCT1 c.480G>C (p.Leu160Phe, rs683369), p = 0.025): 33% | increase in AUC(0–24 h) with cimetidine ([3]; participants homozygous for OCT2 c.1506C>T (p.Val502=, rs316003), p = 0.022): 27% | reduction in CLr,a with cimetidine ([3]; participants homozygous for OCT2 c.518+32G>C (rs2774230) or c.1506C>T (rs316003)): 9% | increase in AUC(0–24 h) with cimetidine ([3]; participants homozygous for OCT2 c.518+32G>C (rs2774230), p = 0.013): 35%
Compound: CN(C)C(=N)N=C(N)N [Metformin]
increase in metformin blood concentrations [4]: 3.2 fold | reduction in CLr [4]: 73% | reduction of hepatic metformin concentration (Oct1 [5]): 3.4 fold | decrease in CLr ([6]; oral metformin 250–500 mg with cimetidine, healthy adults): 27–45% | reduction in metformin CLr ([6]; similar cimetidine dosing regimen (400 mg), not statistically significant, ref 26 (Koishikawa et al.)): 15% | share of urinary excretion through glomerular filtration [7]: 25% | share of urinary excretion through renal secretion [7]: 75% | Ae(0–4 h) %Change (cimetidine exposure/baseline), increase (↑) [3, 11]: 4% (↑)

CL renal (clinical; plasma and urine): 68.3 mL/min | Cmax (clinical): 2.6 ng/mL | Cmax (clinical; 50 mg): 2.6 ng/mL | AUC(0–4 h), effect of cimetidine exposure vs baseline (in words) [3, 9]: comparable | AUC(0–24 h), effect of cimetidine exposure vs baseline (in words) [3, 9]: comparable | CLr,a, effect of cimetidine exposure vs baseline (in words) [3, 9]: No change | CLr,b, effect of cimetidine exposure vs baseline (in words) [3, 9]: comparable | Cmax, effect of cimetidine exposure vs baseline (in words) [3, 9]: No change | CLr,a, effect of cimetidine exposure vs baseline (in words) [3, 12]: comparable | Cmax, effect of cimetidine exposure vs baseline (in words) [3, 12]: comparable | AUC(0–4 h) %Change (cimetidine exposure/baseline), decrease (↓) [3, 10]: 5% (↓) | AUC(0–24 h) %Change (cimetidine exposure/baseline), decrease (↓) [3, 10]: 5% (↓) | CLr,b %Change (cimetidine exposure/baseline), increase (↑) [3, 11]: 53% (↑)
Compound: Cn1cnc2c(ncn2[C@@H]2O[C@H](CO)[C@@H](O)[C@H]2O)c1=N [N1-Methyladenosine, N1-methyladenosine]
reduction in CLr [8]: 47% | Ae(0–4 h), effect of cimetidine exposure vs baseline (in words) [3, 9]: comparable | Ae(0–24 h), effect of cimetidine exposure vs baseline (in words) [3, 9]: comparable | Ae(0–24 h) %Change (cimetidine exposure/baseline), decrease (↓) [3, 10]: 4% (↓) | Ae(0–4 h) %Change (cimetidine exposure/baseline), increase (↑) [3, 11]: 44% (↑)

relative plasma concentrations between study arms [3]: no significant differences
Compound: C[n+]1cccc(C(=O)O)c1 [N1-methyl nicotinic acid]

relative plasma concentrations between study arms [3]: no significant differences
Compound: CC(=O)OCC[N+](C)(C)C [acetylcholine]

Compound: C[N+](C)(C)CC(O)CC(=O)[O-] (stereo not drawn) [carnitine]
relative plasma concentrations between study arms [3]: no significant differences

relative plasma concentrations between study arms [3]: no significant differences
Compound: C[N+](C)(C)CCO [choline]

Compound: C[N+](C)(C)CC(=O)[O-] [glycine betaine]
relative plasma concentrations between study arms [3]: no significant differences

relative plasma concentrations between study arms [3]: no significant differences
Compound: N[C@@H](Cc1c[nH]c2ccccc12)C(=O)O [tryptophan]

— PMC12596758 (Clinical pharmacology and therapeutics, 2025)
